Test results published in paper PMC4244111, “Structure of Putrescine Aminotransferase from Escherichia coli Provides Insights into the Substrate Specificity among Class III Aminotransferases” (PLoS ONE, 2014).

Target: T1, YgjG (Escherichia coli, UniProt P42588)
T1 construct: gene patA; full-length, C-terminal His6 tag, expressed in E. coli B834(DE3); homodimer; seven N-terminal and one C-terminal residues not visible
Test: X-ray crystallography, […] Å
Format: binding
Conditions: crystal pH 7.5; covalent, Schiff base with Lys300; active site at dimer interface

T1 sequence (P42588 whole entry): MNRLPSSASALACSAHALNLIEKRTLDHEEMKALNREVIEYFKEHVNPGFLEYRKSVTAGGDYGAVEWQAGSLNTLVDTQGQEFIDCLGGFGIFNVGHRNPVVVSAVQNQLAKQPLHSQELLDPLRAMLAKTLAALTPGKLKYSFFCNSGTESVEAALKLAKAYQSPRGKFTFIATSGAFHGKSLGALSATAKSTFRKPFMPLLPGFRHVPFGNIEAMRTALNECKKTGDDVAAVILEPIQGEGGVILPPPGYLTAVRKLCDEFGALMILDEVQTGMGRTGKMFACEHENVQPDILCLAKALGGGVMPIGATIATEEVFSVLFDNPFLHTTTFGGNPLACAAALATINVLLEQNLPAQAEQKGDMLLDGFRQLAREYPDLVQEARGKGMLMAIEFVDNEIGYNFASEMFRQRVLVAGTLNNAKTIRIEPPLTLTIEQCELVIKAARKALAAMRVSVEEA

Cc1ncc(COP(=O)(O)O)c(C=O)c1O [pyridoxal-5′-phosphate]
X-ray crystallography, 2.3 Å: PLP is covalently linked to the strictly conserved lysine residue (Lys300) via a Schiff base linkage
